Test results as given in ChEMBL document CHEMBL3580659, “One-pot multicomponent synthesis of indole incorporated thiazolylcoumarins and their antibacterial, anticancer and DNA cleavage studies” (2015).
Active and inactive are the calls of the source. No cut-off for these calls is given here.

Key:
[1] = test system: SK-MEL-28; assay: Cytotoxicity against human SK-MEL-28 cells assessed as cell growth level at 10 nM after 48 hrs by sulforhodamine B assay; type: functional
[2] = test system: RXF 393; assay: Cytotoxicity against human RXF393 cells assessed as cell growth level at 100 uM after 48 hrs by sulforhodamine B assay; type: functional
[3] = test system: DU-145; assay: Cytotoxicity against human DU145 cells assessed as cell growth level at 10 uM after 48 hrs by sulforhodamine B assay; type: functional
[4] = test system: HCC 2998; assay: Cytotoxicity against human HCC2998 cells assessed as cell growth level at 10 uM after 48 hrs by sulforhodamine B assay; type: functional
[5] = test system: CCRF-CEM; assay: Cytotoxicity against human CCRF-CEM cells after 48 hrs by sulforhodamine B assay; type: functional
[6] = test system: T47D; assay: Cytotoxicity against human T47D cells after 48 hrs by sulforhodamine B assay; type: functional
[7] = test system: HL-60(TB); assay: Cytotoxicity against human HL-60(TB) cells assessed as cell growth level at 100 nM after 48 hrs by sulforhodamine B assay; type: functional
[8] = test system: PC-3; assay: Cytotoxicity against human PC3 cells assessed as cell growth level at 100 uM after 48 hrs by sulforhodamine B assay; type: functional
[9] = test system: U-251; assay: Cytotoxicity against human U251 cells assessed as cell growth level at 100 uM after 48 hrs by sulforhodamine B assay; type: functional
[10] = test system: OVCAR-5; assay: Cytotoxicity against human OVCAR5 cells assessed as cell growth level at 1 uM after 48 hrs by sulforhodamine B assay; type: functional
[11] = test system: SK-MEL-5; assay: Cytotoxicity against human SK-MEL-5 cells after 48 hrs by sulforhodamine B assay; type: functional; conditions: SK-MEL-5, 48 h
[12] = test system: HCT-116; assay: Cytotoxicity against human HCT116 cells after 48 hrs by sulforhodamine B assay; type: functional; conditions: HCT-116, 48 h
[13] = test system: SK-OV-3; assay: Cytotoxicity against human SKOV3 cells assessed as cell growth level at 1 uM after 48 hrs by sulforhodamine B assay; type: functional
[14] = test system: NCI-H23; assay: Cytotoxicity against human NCI-H23 cells assessed as cell growth level at 10 uM after 48 hrs by sulforhodamine B assay; type: functional
[15] = test system: MDA-MB-435; assay: Cytotoxicity against human MDA-MB-435 cells assessed as cell growth level at 10 nM after 48 hrs by sulforhodamine B assay; type: functional
[16] = test system: RXF 393; assay: Cytotoxicity against human RXF393 cells assessed as cell growth level at 100 nM after 48 hrs by sulforhodamine B assay; type: functional
[17] = test system: U-251; assay: Cytotoxicity against human U251 cells assessed as cell growth level at 1 uM after 48 hrs by sulforhodamine B assay; type: functional
[18] = test system: Escherichia coli; assay: Induction of DNA cleavage of Escherichia coli pUC18 plasmid DNA at 50 ug/ml after 2 hrs by agarose gel elctrophoresis method
[19] = test system: DU-145; assay: Cytotoxicity against human DU145 cells assessed as cell growth level at 1 uM after 48 hrs by sulforhodamine B assay; type: functional
[20] = test system: RPMI-8226; assay: Cytotoxicity against human RPMI8226 cells assessed as cell growth level at 100 uM after 48 hrs by sulforhodamine B assay; type: functional
[21] = test system: SW-620; assay: Cytotoxicity against human SW620 cells assessed as cell growth level at 10 uM after 48 hrs by sulforhodamine B assay; type: functional
[22] = test system: Escherichia coli; assay: Antibacterial activity against Escherichia coli assessed as bacterial growth inhibition at 50 ug/ml after 24 hrs by cup-plate agar diffusion method; type: functional; conditions: read-out: IZ
[23] = test system: HL-60(TB); assay: Cytotoxicity against human HL-60(TB) cells assessed as cell growth level at 1 uM after 48 hrs by sulforhodamine B assay; type: functional
[24] = test system: HOP-62; assay: Cytotoxicity against human HOP62 cells assessed as cell growth level at 10 nM after 48 hrs by sulforhodamine B assay; type: functional
[25] = test system: SW-620; assay: Cytotoxicity against human SW620 cells after 48 hrs by sulforhodamine B assay; type: functional; conditions: SW-620, 48 h
[26] = test system: OVCAR-8; assay: Cytotoxicity against human OVCAR8 cells assessed as cell growth level at 10 uM after 48 hrs by sulforhodamine B assay; type: functional
[27] = test system: ACHN; assay: Cytotoxicity against human ACHN cells assessed as cell growth level at 100 uM after 48 hrs by sulforhodamine B assay; type: functional
[28] = test system: SN12C; assay: Cytotoxicity against human SN12C cells after 48 hrs by sulforhodamine B assay; type: functional
[29] = test system: UACC-257; assay: Cytotoxicity against human UACC257 cells assessed as cell growth level at 10 uM after 48 hrs by sulforhodamine B assay; type: functional
[30] = Cytotoxicity against human NCI-ADR-RES cells assessed as cell growth level at 100 nM after 48 hrs by sulforhodamine B assay; type: functional
[31] = test system: OVCAR-4; assay: Cytotoxicity against human OVCAR4 cells assessed as cell growth level at 10 uM after 48 hrs by sulforhodamine B assay; type: functional
[32] = test system: SR; assay: Cytotoxicity against human SR cells assessed as cell growth level at 1 uM after 48 hrs by sulforhodamine B assay; type: functional
[33] = test system: SK-MEL-28; assay: Cytotoxicity against human SK-MEL-28 cells assessed as cell growth level at 1 uM after 48 hrs by sulforhodamine B assay; type: functional
[34] = Cytotoxicity against human Hs 578T cells after 48 hrs by sulforhodamine B assay; type: functional
[35] = test system: BT-549; assay: Cytotoxicity against human BT549 cells assessed as cell growth level at 1 uM after 48 hrs by sulforhodamine B assay; type: functional
[36] = test system: RPMI-8226; assay: Cytotoxicity against human RPMI8226 cells assessed as cell growth level at 100 nM after 48 hrs by sulforhodamine B assay; type: functional
[37] = test system: SF-539; assay: Cytotoxicity against human SF539 cells assessed as cell growth level at 10 uM after 48 hrs by sulforhodamine B assay; type: functional
[38] = test system: OVCAR-8; assay: Cytotoxicity against human OVCAR8 cells assessed as cell growth level at 100 uM after 48 hrs by sulforhodamine B assay; type: functional
[39] = read-out: LC50 (the source's name)
[40] = read-out: pLC50 (the source's name) (converted)

O=c1oc2ccccc2cc1-c1csc(N/N=C/c2c[nH]c3ccccc23)n1
Activity [1]: 94%
Activity [2]: -6%
Activity [3]: -36.09%
Activity [4]: 8.49%
GI50 ([5]; read-out: GI50): 0.33 µM
LC50 ([5]; read-out: LC50): > 100 µM
TGI ([5]; read-out: TGI): 1.78 µM
GI50 ([5]; read-out: pGI50 (converted)): 0.339 µM
LC50 ([5]; read-out: pLC50 (converted)): > 100 µM
TGI ([5]; read-out: pTGI (converted)): 1.78 µM
GI50 ([6]; read-out: GI50): 1.98 µM
CC50 [6, 39]: > 100 µM
TGI ([6]; read-out: TGI): 5.9 µM
GI50 ([6]; read-out: pGI50 (converted)): 2 µM
CC50 [6, 40]: > 100 µM
TGI ([6]; read-out: pTGI (converted)): 5.89 µM
Activity [7]: 97%
Activity [8]: -20%
Activity [9]: -89%
Activity [10]: 87%
GI50 ([11]; read-out: GI50): 2.09 µM
CC50 [11, 39]: 15.2 µM
TGI ([11]; read-out: TGI): 4.97 µM
GI50 ([11]; read-out: pGI50 (converted)): 2.09 µM
CC50 [11, 40]: 15.1 µM
TGI ([11]; read-out: pTGI (converted)): 5.01 µM
GI50 ([12]; read-out: GI50): 1.6 µM
CC50 [12, 39]: 6.49 µM
TGI ([12]; read-out: TGI): 3.22 µM
GI50 ([12]; read-out: pGI50 (converted)): 1.58 µM
CC50 [12, 40]: 6.46 µM
TGI ([12]; read-out: pTGI (converted)): 3.24 µM
Activity [13]: 64%
Activity [14]: 25.93%
Activity [15]: 92%
Activity [16]: 93%
Activity [17]: 103%
Activity [18]: Active
Activity [19]: 80%
Activity [20]: -41%
Activity [21]: 17.5%
zone of inhibition at 50 µg/mL [22]: 15 mm
Activity [23]: 26%
Activity [24]: 105%
GI50 ([25]; read-out: GI50): 2.19 µM
CC50 [25, 39]: 70.9 µM
TGI ([25]; read-out: TGI): 5.24 µM
GI50 ([25]; read-out: pGI50 (converted)): 2.19 µM
CC50 [25, 40]: 70.8 µM
TGI ([25]; read-out: pTGI): 5.25 µM
Activity [26]: 2.99%
Activity [27]: -45%
GI50 ([28]; read-out: GI50): 1.08 µM
CC50 [28, 39]: > 100 µM
TGI ([28]; read-out: TGI): 3.96 µM
GI50 ([28]; read-out: pGI50 (converted)): 1.07 µM
CC50 [28, 40]: > 100 µM
TGI ([28]; read-out: pTGI (converted)): 3.98 µM
Activity [29]: 8.34%
Activity [30]: 110%
Activity [31]: -4.09%
Activity [32]: 81%
Activity [33]: 93%
GI50 ([34]; read-out: GI50): 3.2 µM
CC50 [34, 39]: > 100 µM
TGI ([34]; read-out: TGI): 58.9 µM
GI50 ([34]; read-out: pGI50 (converted)): 3.16 µM
CC50 [34, 40]: > 100 µM
TGI ([34]; read-out: pTGI (converted)): 58.9 µM
Activity [35]: 58%
Activity [36]: 94%
Activity [37]: 0.41%
Activity [38]: -8%
